Reference: US20140031278A1, “Novel Glucagon Analogues” (NOVO NORDISK A/S, priority 2011, published 2014)
pEC50: −log10 of the molar value. *1 amine or outer side, *2 acyl side, *3 side chain or, on linkers, in order; H or OH if unused. Where a SMILES comes first, the peptide text is derived from it. Side-chain parts run from the residue outwards. The star is where a group is joined. γGlu = O=C(O)[C@H](CCC(=O)[*:2])N[*:1]; Butyryl = CCCC(=O)*

Each compound was assayed against T1, glucagon receptor (Homo sapiens, UniProt P47871) (assay: Assay (I) Glucagon activity (cAMP biosensor, FLIPR)). Details: HEK-293 cells with cloned glucagon receptor and cAMP biosensor; end point after 6 minutes.
T1 construct: expressed in transfected cells
Type: cell-based
How it was run: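 HEK-293 cells expressing glucagon receptor with membrane cAMP biosensor (ACTOne), calcium-dye loaded with probenecid and a PDE inhibitor.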

T1 sequence (P47871 26-477): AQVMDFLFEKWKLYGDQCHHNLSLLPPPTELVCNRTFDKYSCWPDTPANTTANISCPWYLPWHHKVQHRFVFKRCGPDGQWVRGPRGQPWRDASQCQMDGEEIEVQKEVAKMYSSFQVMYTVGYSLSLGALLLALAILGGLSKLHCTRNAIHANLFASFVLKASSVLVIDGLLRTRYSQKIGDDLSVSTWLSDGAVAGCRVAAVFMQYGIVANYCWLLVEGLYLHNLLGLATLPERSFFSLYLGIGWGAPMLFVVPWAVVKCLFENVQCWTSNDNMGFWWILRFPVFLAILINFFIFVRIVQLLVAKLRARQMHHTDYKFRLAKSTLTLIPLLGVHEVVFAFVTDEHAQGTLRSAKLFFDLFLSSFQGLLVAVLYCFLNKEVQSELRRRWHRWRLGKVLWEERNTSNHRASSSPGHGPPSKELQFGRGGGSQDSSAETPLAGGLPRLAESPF

With `CC(=O)N[C@@H](CCC(=O)N[C@@H](CCC(=O)N[C@@H](CCC(=O)N[C@@H](CCC(=O)NCCCC[C@H](NC(=O)[C@@H](NC(=O)[C@H](Cc1ccccc1)NC(=O)[C@H](CC(=O)O)NC(=O)[C@H](CCC(N)=O)NC(=O)[C@H](C)NC(=O)[C@H](CCCNC(=N)N)NC(=O)[C@H](CCCNC(=N)N)NC(=O)[C@@H](NC(=O)[C@H](CC(=O)O)NC(=O)[C@H](CC(C)C)NC(=O)[C@H](Cc1ccc(O)cc1)NC(=O)[C@H](CCCCN)NC(=O)[C@H](CO)NC(=O)[C@H](Cc1ccc(O)cc1)NC(=O)[C@H](CC(=O)O)NC(=O)[C@H](CO)NC(=O)[C@@H](NC(=O)[C@H](Cc1ccccc1)NC(=O)[C@@H](NC(=O)CNC(=O)[C@H](Cc1c[nH]cn1)NC(=O)[C@H](CO)NC(=O)[C@@H](N)Cc1c[nH]cn1)[C@@H](C)O)[C@@H](C)O)[C@@H](C)O)C(C)C)C(=O)N[C@@H](Cc1c[nH]c2ccccc12)C(=O)N[C@@H](CC(C)C)C(=O)N[C@@H](CC(C)C)C(=O)N[C@@H](CO)C(=O)N[C@H](C(=O)O)[C@@H](C)O)C(=O)O)C(=O)O)C(=O)O)C(=O)O` [Example 32, N^ε24-[(4S)-4-[[(4S)-4-[[(4S)-4-[[(4S)-4-acetamido-4-carboxybutanoyl]amino]-4-carboxybutanoyl]amino]-4-carboxybutanoyl]amino]-4-carboxybutanoyl]-[His3,Thr16,Lys24,Leu27,Ser28]-Glucagon] (H-HSHGTFTSDYSKYLDTRRAQDFVK([γGlu-γGlu-γGlu-γGlu-Ac])WLLST-OH) as the compound, how does the pEC50 read?
The pEC50 was 11.05.

With `CC(C)C[C@H](NC(=O)[C@H](Cc1c[nH]c2ccccc12)NC(=O)[C@H](CCCCNC(=O)CC[C@H](NC(=O)CC[C@H](NC(=O)CC[C@H](NC(=O)CC[C@H](N)C(=O)O)C(=O)O)C(=O)O)C(=O)O)NC(=O)[C@@H](NC(=O)[C@H](Cc1ccccc1)NC(=O)[C@H](CC(=O)O)NC(=O)[C@H](C)NC(=O)[C@H](C)NC(=O)[C@H](CCCNC(=N)N)NC(=O)[C@H](CCCNC(=N)N)NC(=O)[C@@H](NC(=O)[C@H](CC(=O)O)NC(=O)[C@H](CC(C)C)NC(=O)[C@H](Cc1ccc(O)cc1)NC(=O)[C@H](CCCNC(=N)N)NC(=O)[C@H](CO)NC(=O)[C@H](Cc1ccc(O)cc1)NC(=O)[C@H](CC(=O)O)NC(=O)[C@H](CO)NC(=O)[C@@H](NC(=O)[C@H](Cc1ccccc1)NC(=O)[C@@H](NC(=O)CNC(=O)[C@H](Cc1c[nH]cn1)NC(=O)[C@H](CO)NC(=O)[C@@H](N)Cc1c[nH]cn1)[C@@H](C)O)[C@@H](C)O)[C@@H](C)O)C(C)C)C(=O)N[C@@H](CC(C)C)C(=O)N[C@@H](CO)C(=O)N[C@H](C(=O)O)[C@@H](C)O` [Example 9, N^ε24-[(4S)-4-[[(4S)-4-[[(4S)-4-[[(4S)-4-amino-4-carboxybutanoyl]amino]-4-carboxybutanoyl]amino]-4-carboxybutanoyl]amino]-4-carboxybutanoyl]-[His3,Arg12,Thr16,Ala20,Lys24,Leu27,Ser28]-Glucagon] (H-HSHGTFTSDYSRYLDTRRAADFVK([γGlu-γGlu-γGlu-γGlu])WLLST-OH) as the compound, how does the pEC50 read?
The pEC50 was 10.43.

`CCCC(=O)N[C@@H](CCC(=O)N[C@@H](CCC(=O)N[C@@H](CCC(=O)N[C@@H](CCC(=O)NCCCC[C@H](NC(=O)[C@@H](NC(=O)[C@H](Cc1ccccc1)NC(=O)[C@H](CC(=O)O)NC(=O)[C@H](C)NC(=O)[C@H](C)NC(=O)[C@H](CCCNC(=N)N)NC(=O)[C@H](CCCNC(=N)N)NC(=O)[C@H](CC(C)C)NC(=O)[C@H](CC(=O)O)NC(=O)[C@H](CC(C)C)NC(=O)[C@H](Cc1ccc(O)cc1)NC(=O)[C@H](CCCNC(=N)N)NC(=O)[C@H](CO)NC(=O)[C@H](Cc1ccc(O)cc1)NC(=O)[C@H](CC(=O)O)NC(=O)[C@H](CO)NC(=O)[C@@H](NC(=O)[C@H](Cc1ccccc1)NC(=O)[C@@H](NC(=O)CNC(=O)[C@H](CCC(N)=O)NC(=O)[C@H](CO)NC(=O)[C@@H](N)Cc1c[nH]cn1)[C@@H](C)O)[C@@H](C)O)C(C)C)C(=O)N[C@@H](Cc1c[nH]c2ccccc12)C(=O)N[C@@H](CC(C)C)C(=O)N[C@@H](CC(C)C)C(=O)N[C@@H](CO)C(=O)N[C@H](C(=O)O)[C@@H](C)O)C(=O)O)C(=O)O)C(=O)O)C(=O)O` [Example 65, N^ε24-[(4S)-4-[[(4S)-4-[[(4S)-4-[[(4S)-4-(butanoylamino)-4-carboxybutanoyl]amino]-4-carboxybutanoyl]amino]-4-carboxybutanoyl]amino]-4-carboxybutanoyl]-[Arg^12,Leu^16,Ala^20,Lys^24,Leu^27,Ser^28]-Glucagon] (H-HSQGTFTSDYSRYLDLRRAADFVK([γGlu-γGlu-γGlu-γGlu-Butyryl])WLLST-OH) was tested. Which pEC50 did it give?
Its pEC50 is 10.68.

`CC(=O)N[C@@H](CCC(=O)N[C@@H](CCC(=O)N[C@@H](CCC(=O)N[C@@H](CCC(=O)NCCCC[C@H](NC(=O)[C@@H](NC(=O)[C@H](Cc1ccccc1)NC(=O)[C@H](CC(=O)O)NC(=O)[C@H](CCC(N)=O)NC(=O)[C@H](C)NC(=O)[C@H](CCCNC(=N)N)NC(=O)[C@H](CCCNC(=N)N)NC(=O)[C@H](CO)NC(=O)[C@H](CC(=O)O)NC(=O)[C@H](CC(C)C)NC(=O)[C@H](Cc1ccc(O)cc1)NC(=O)[C@H](CCCCN)NC(=O)[C@H](CO)NC(=O)[C@H](Cc1ccc(O)cc1)NC(=O)[C@H](CC(=O)O)NC(=O)[C@H](CO)NC(=O)[C@@H](NC(=O)[C@H](Cc1ccccc1)NC(=O)[C@@H](NC(=O)CNC(=O)[C@H](Cc1c[nH]cn1)NC(=O)[C@H](CO)NC(=O)[C@@H](N)Cc1c[nH]cn1)[C@@H](C)O)[C@@H](C)O)C(C)C)C(=O)N[C@@H](Cc1c[nH]c2ccccc12)C(=O)N[C@@H](CC(C)C)C(=O)N[C@@H](CC(C)C)C(=O)N[C@@H](CO)C(=O)N[C@H](C(=O)O)[C@@H](C)O)C(=O)O)C(=O)O)C(=O)O)C(=O)O` [Example 3] was tested. Which pEC50 did it give?
The pEC50 was 10.98.

With `CC[C@H](C)[C@H](NC(=O)[C@H](CC(=O)O)NC(=O)[C@H](CC(C)C)NC(=O)[C@H](Cc1ccc(O)cc1)NC(=O)[C@H](CCCCN)NC(=O)[C@H](CO)NC(=O)[C@H](Cc1ccc(O)cc1)NC(=O)[C@H](CC(=O)O)NC(=O)[C@H](CO)NC(=O)[C@@H](NC(=O)[C@H](Cc1ccccc1)NC(=O)[C@@H](NC(=O)CNC(=O)[C@H](CCC(N)=O)NC(=O)[C@H](CO)NC(=O)[C@@H](N)Cc1c[nH]cn1)[C@@H](C)O)[C@@H](C)O)C(=O)N[C@@H](CCCNC(=N)N)C(=O)N[C@@H](CCCNC(=N)N)C(=O)N[C@@H](C)C(=O)N[C@@H](CCC(N)=O)C(=O)N[C@@H](CC(=O)O)C(=O)N[C@@H](Cc1ccccc1)C(=O)N[C@H](C(=O)N[C@@H](CCCCNC(=O)CC[C@H](NC(=O)CC[C@H](NC(=O)CC[C@H](NC(=O)CC[C@H](NC(C)=O)C(=O)O)C(=O)O)C(=O)O)C(=O)O)C(=O)N[C@@H](Cc1c[nH]c2ccccc12)C(=O)N[C@@H](CC(C)C)C(=O)N[C@@H](CC(C)C)C(=O)N[C@@H](CO)C(=O)N[C@H](C(=O)O)[C@@H](C)O)C(C)C` [Example 36, N^ε24-[(4S)-4-[[(4S)-4-[[(4S)-4-[[(4S)-4-acetamido-4-carboxybutanoyl]amino]-4-carboxybutanoyl]amino]-4-carbox[…]ybutanoyl]amino]-4-carboxybutanoyl]-[Ile16,Lys24,Leu27,Ser28]-Glucagon] as the compound, how does the pEC50 read?
The pEC50 was 11.60.

With `CC(=O)N[C@@H](CCC(=O)N[C@@H](CCC(=O)N[C@@H](CCC(=O)N[C@@H](CCC(=O)NCCCC[C@H](NC(=O)[C@@H](NC(=O)[C@H](Cc1ccccc1)NC(=O)[C@H](CC(=O)O)NC(=O)[C@H](CCC(N)=O)NC(=O)[C@H](C)NC(=O)[C@H](CCCNC(=N)N)NC(=O)[C@H](CCCNC(=N)N)NC(=O)[C@H](CO)NC(=O)[C@H](CCC(=O)O)NC(=O)[C@H](CC(C)C)NC(=O)[C@H](Cc1ccc(O)cc1)NC(=O)[C@H](CCCCN)NC(=O)[C@H](CO)NC(=O)[C@H](Cc1ccc(O)cc1)NC(=O)[C@H](CC(=O)O)NC(=O)[C@H](CO)NC(=O)[C@@H](NC(=O)[C@H](Cc1ccccc1)NC(=O)[C@@H](NC(=O)CNC(=O)[C@H](CCC(N)=O)NC(=O)[C@H](CO)NC(=O)[C@@H](N)Cc1c[nH]cn1)[C@@H](C)O)[C@@H](C)O)C(C)C)C(=O)N[C@@H](Cc1c[nH]c2ccccc12)C(=O)N[C@@H](CC(C)C)C(=O)N[C@@H](CC(C)C)C(=O)N[C@@H](CC(N)=O)C(=O)N[C@H](C(=O)O)[C@@H](C)O)C(=O)O)C(=O)O)C(=O)O)C(=O)O` [Example 17, N^ε24-[(4S)-4-[[(4S)-4-[[(4S)-4-[[(4S)-4-acetamido-4-carboxybutanoyl]amino]-4-carboxybutanoyl]amino]-4-carboxybutanoyl]amino]-4-carboxybutanoyl]-[Glu15,Lys24,Leu27]-Glucagon] as the compound, how does the pEC50 read?
Its pEC50 is 10.78.

`CC(=O)N[C@@H](CCC(=O)N[C@@H](CCC(=O)N[C@@H](CCC(=O)N[C@@H](CCC(=O)NCCCC[C@H](NC(=O)[C@@H](NC(=O)[C@H](Cc1ccccc1)NC(=O)[C@H](CC(=O)O)NC(=O)[C@H](CCC(N)=O)NC(=O)[C@H](C)NC(=O)[C@H](CCCNC(=N)N)NC(=O)[C@H](CCCNC(=N)N)NC(=O)[C@H](Cc1ccc(O)cc1)NC(=O)[C@H](CC(=O)O)NC(=O)[C@H](CC(C)C)NC(=O)[C@H](Cc1ccc(O)cc1)NC(=O)[C@H](CCCCN)NC(=O)[C@H](CO)NC(=O)[C@H](Cc1ccc(O)cc1)NC(=O)[C@H](CC(=O)O)NC(=O)[C@H](CO)NC(=O)[C@@H](NC(=O)[C@H](Cc1ccccc1)NC(=O)[C@@H](NC(=O)CNC(=O)[C@H](CCC(N)=O)NC(=O)[C@H](CO)NC(=O)[C@@H](N)Cc1c[nH]cn1)[C@@H](C)O)[C@@H](C)O)C(C)C)C(=O)N[C@@H](Cc1c[nH]c2ccccc12)C(=O)N[C@@H](CC(C)C)C(=O)N[C@@H](CC(C)C)C(=O)N[C@@H](CO)C(=O)N[C@H](C(=O)O)[C@@H](C)O)C(=O)O)C(=O)O)C(=O)O)C(=O)O` [Example 37, N^ε24-[(4S)-4-[[(4S)-4-[[(4S)-4-[[(4S)-4-acetamido-4-carboxybutanoyl]amino]-4-carboxybutanoyl]amino]-4-carbox[…]ybutanoyl]amino]-4-carboxybutanoyl]-[Tyr16,Lys24,Leu27,Ser28]-Glucagon] was tested. Which pEC50 did it give?
Its pEC50 is 11.52.
